Data reported in patent US12629452B2, “Cranial suture regeneration” (University of Southern California, priority 2021, dated 2026).

System: suture mesenchymal cells
Experiment: Western blot of Runx2 and OPN (osteogenic differentiation)
Format: cell-based, mouse
Conditions: 20 μM Wnt agonist 1 or 100 nM LY2090314, one or two weeks, vs vehicle
Procedure: Suture mesenchymal cells from one-month-old C57BL/6J mice were cultured with 20 μM Wnt agonist 1 (Selleck, S8178) or 100 nM LY2090314 (Selleck, S7063) for one or two weeks in αMEM. Medium was changed every other day. Total protein was extracted using a solution of loading buffer (Cell Signaling Technology, 7723S), protease inhibitor (Thermo Fisher Scientific, 1861278) and DTT (Cell Signaling Technology, 7723S), then separated by 10% SDS-PAGE and transferred to PVDF membranes (Millipore, ISEQ00005). Membranes were blocked with 5% non-fat dry milk dissolved in TBST for 2 hours at room temperature with gentle shaking, and then incubated with primary antibodies: anti-Runx2 (Cell signaling technology 12556, 1:1000), anti-OPN (Abcam ab63856, 1:500), and anti-βactin (Abcam ab20272, 1:1000) at 4° C. overnight followed by corresponding horseradish-peroxidase (HRP)-conjugated secondary antibodies. Protein expression was detected by Bio-Rad ChemiDoc Touch (Bio-Rad) and intensities of bands were quantitated by Image J software.

| SMILES | OPN expression level | Runx2 expression level |
| --- | --- | --- |
| COc1cccc(-c2cc(NCc3ccc4c(c3)OCO4)nc(N)n2)c1 [Wnt agonist 1] | significantly increased | significantly increased |
| O=C1NC(=O)C(c2cnc3ccccn23)=C1c1cn2c3c(cc(F)cc13)CN(C(=O)N1CCCCC1)CC2 [LY2090314] | significantly increased | significantly increased |
